Laboratory results reported in ChEMBL document CHEMBL3885881, “DrugMatrix”.

Species on record: Rattus norvegicus
Assay: DrugMatrix - Regimen: Daily Repeat
Type: toxicity, organism-based, Sprague-Dawley
Set-up: regimen Daily Repeat, gender Male, age 6-8 weeks
Settings: in vivo, po, route oral GAVAGE, vehicle .5 % CMC; for ABSOLUTE BASOPHIL / ABSOLUTE EOSINOPHIL / ABSOLUTE LYMPHOCYTE / ABSOLUTE MONOCYTE / ABSOLUTE SEGMENTED NEUTROPHIL / BASOPHIL / EOSINOPHIL / ERYTHROCYTE COUNT / HEMATOCRIT / HEMOGLOBIN / LEUKOCYTE COUNT / LYMPHOCYTE / MEAN CORPUSCULAR HEMOGLOBIN / MEAN CORPUSCULAR HEMOGLOBIN CONCENTRATION / MEAN CORPUSCULAR VOLUME / MONOCYTE / NEUTROPHIL / NUCLEATED RED BLOOD CELLS / PLATELET COUNT: tissue Blood; for ALANINE AMINOTRANSFERASE / ALBUMIN / ALKALINE PHOSPHATASE / ASPARTATE AMINOTRANSFERASE / BLOOD UREA NITROGEN / CARBON DIOXIDE / CHLORIDE / CHOLESTEROL / CREATINE PHOSPHOKINASE / CREATININE / GLUCOSE / LACTATE DEHYDROGENASE / LIPASE / PHOSPHORUS / POTASSIUM / SODIUM / TOTAL BILIRUBIN / TOTAL PROTEIN / URIC ACID: tissue Plasma
[1] = 10 mg/kg, 72 h, dose level Low, time 3 day
[2] = 10 mg/kg, 120 h, dose level Low, time 5 day
[3] = 1500 mg/kg, 72 h, dose level High, time 3 day
[4] = 1500 mg/kg, 120 h, dose level High, time 5 day

NS(=O)(=O)c1cc2c(cc1Cl)NCNS2(=O)=O [HYDROCHLOROTHIAZIDE]
ABSOLUTE BASOPHIL [1]: 0 CELLS/uL
ABSOLUTE EOSINOPHIL [1]: 69 CELLS/uL
ABSOLUTE LYMPHOCYTE [1]: 10610.67 CELLS/uL
ABSOLUTE MONOCYTE [1]: 107.67 CELLS/uL
ABSOLUTE SEGMENTED NEUTROPHIL [1]: 3446 CELLS/uL
BASOPHIL [1]: 0%
EOSINOPHIL [1]: 0.33%
ERYTHROCYTE COUNT [1]: 5.79 x10E6/uL
HEMATOCRIT [1]: 34.73%
HEMOGLOBIN [1]: 13.77 G/DL
LEUKOCYTE COUNT [1]: 14.23 x10E3/uL
LYMPHOCYTE [1]: 77.33%
MEAN CORPUSCULAR HEMOGLOBIN [1]: 23.8 pg
MEAN CORPUSCULAR HEMOGLOBIN CONCENTRATION [1]: 39.67 G/DL
MEAN CORPUSCULAR VOLUME [1]: 60.07 fL
MONOCYTE [1]: 1%
NEUTROPHIL [1]: 21.33%
NUCLEATED RED BLOOD CELLS [1]: 0 /100WBC
PLATELET COUNT [1]: 1306 x10E3/uL
ALANINE AMINOTRANSFERASE [1]: 49 u/L
ALBUMIN [1]: 4.17 G/DL
ALKALINE PHOSPHATASE [1]: 352 u/L
ASPARTATE AMINOTRANSFERASE [1]: 90.67 u/L
BLOOD UREA NITROGEN [1]: 14.33 mg/dL
CARBON DIOXIDE [1]: 24.33 mmol/L
CHLORIDE [1]: 103 MEQ/L
CHOLESTEROL [1]: 65.67 mg/dL
CREATINE PHOSPHOKINASE [1]: 517.67 u/L
CREATININE [1]: 0.15 mg/dL
GLUCOSE [1]: 149.33 mg/dL
LACTATE DEHYDROGENASE [1]: 306.67 u/L
LIPASE [1]: 10 u/L
PHOSPHORUS [1]: 12.73 mg/dL
POTASSIUM [1]: 6.56 MEQ/L
SODIUM [1]: 144.2 MEQ/L
TOTAL BILIRUBIN [1]: 0.2 mg/dL
TOTAL PROTEIN [1]: 5.87 G/DL
URIC ACID [1]: 2.5 mg/dL
ABSOLUTE BASOPHIL [2]: 0 CELLS/uL
ABSOLUTE EOSINOPHIL [2]: 0 CELLS/uL
ABSOLUTE LYMPHOCYTE [2]: 12129.67 CELLS/uL
ABSOLUTE MONOCYTE [2]: 37.67 CELLS/uL
ABSOLUTE SEGMENTED NEUTROPHIL [2]: 1466 CELLS/uL
BASOPHIL [2]: 0%
EOSINOPHIL [2]: 0%
ERYTHROCYTE COUNT [2]: 5.92 x10E6/uL
HEMATOCRIT [2]: 36.07%
HEMOGLOBIN [2]: 14.23 G/DL
LEUKOCYTE COUNT [2]: 13.63 x10E3/uL
LYMPHOCYTE [2]: 89.67%
MEAN CORPUSCULAR HEMOGLOBIN [2]: 24.03 pg
MEAN CORPUSCULAR HEMOGLOBIN CONCENTRATION [2]: 39.47 G/DL
MEAN CORPUSCULAR VOLUME [2]: 60.83 fL
MONOCYTE [2]: 0.33%
NEUTROPHIL [2]: 10%
NUCLEATED RED BLOOD CELLS [2]: 0 /100WBC
PLATELET COUNT [2]: 1189.67 x10E3/uL
ALANINE AMINOTRANSFERASE [2]: 46 u/L
ALBUMIN [2]: 4.07 G/DL
ALKALINE PHOSPHATASE [2]: 390.67 u/L
ASPARTATE AMINOTRANSFERASE [2]: 89.67 u/L
BLOOD UREA NITROGEN [2]: 13.67 mg/dL
CARBON DIOXIDE [2]: 25.33 mmol/L
CHLORIDE [2]: 101.67 MEQ/L
CHOLESTEROL [2]: 62 mg/dL
CREATINE PHOSPHOKINASE [2]: 269.33 u/L
CREATININE [2]: 0.2 mg/dL
GLUCOSE [2]: 162.33 mg/dL
LACTATE DEHYDROGENASE [2]: 281.67 u/L
LIPASE [2]: 9 u/L
PHOSPHORUS [2]: 11.27 mg/dL
POTASSIUM [2]: 6.59 MEQ/L
SODIUM [2]: 143.33 MEQ/L
TOTAL BILIRUBIN [2]: 0.17 mg/dL
TOTAL PROTEIN [2]: 5.83 G/DL
URIC ACID [2]: 2 mg/dL
ABSOLUTE BASOPHIL [3]: 0 CELLS/uL
ABSOLUTE EOSINOPHIL [3]: 0 CELLS/uL
ABSOLUTE LYMPHOCYTE [3]: 11188.67 CELLS/uL
ABSOLUTE MONOCYTE [3]: 0 CELLS/uL
ABSOLUTE SEGMENTED NEUTROPHIL [3]: 1278 CELLS/uL
BASOPHIL [3]: 0%
EOSINOPHIL [3]: 0%
ERYTHROCYTE COUNT [3]: 5.96 x10E6/uL
HEMATOCRIT [3]: 35.57%
HEMOGLOBIN [3]: 13.93 G/DL
LEUKOCYTE COUNT [3]: 12.47 x10E3/uL
LYMPHOCYTE [3]: 90%
MEAN CORPUSCULAR HEMOGLOBIN [3]: 23.43 pg
MEAN CORPUSCULAR HEMOGLOBIN CONCENTRATION [3]: 39.2 G/DL
MEAN CORPUSCULAR VOLUME [3]: 59.7 fL
MONOCYTE [3]: 0%
NEUTROPHIL [3]: 10%
NUCLEATED RED BLOOD CELLS [3]: 0.67 /100WBC
PLATELET COUNT [3]: 1140 x10E3/uL
ALANINE AMINOTRANSFERASE [3]: 52.67 u/L
ALBUMIN [3]: 4.17 G/DL
ALKALINE PHOSPHATASE [3]: 353.33 u/L
ASPARTATE AMINOTRANSFERASE [3]: 88.33 u/L
BLOOD UREA NITROGEN [3]: 19 mg/dL
CARBON DIOXIDE [3]: 31 mmol/L
CHLORIDE [3]: 95.33 MEQ/L
CHOLESTEROL [3]: 70.67 mg/dL
CREATININE [3]: 0.2 mg/dL
GLUCOSE [3]: 159.33 mg/dL
LACTATE DEHYDROGENASE [3]: 413 u/L
LIPASE [3]: 9.67 u/L
PHOSPHORUS [3]: 11.27 mg/dL
POTASSIUM [3]: 5.57 MEQ/L
SODIUM [3]: 141.57 MEQ/L
TOTAL BILIRUBIN [3]: 0.17 mg/dL
TOTAL PROTEIN [3]: 5.8 G/DL
URIC ACID [3]: 1.43 mg/dL
ABSOLUTE BASOPHIL [4]: 0 CELLS/uL
ABSOLUTE EOSINOPHIL [4]: 84 CELLS/uL
ABSOLUTE LYMPHOCYTE [4]: 12827 CELLS/uL
ABSOLUTE MONOCYTE [4]: 104 CELLS/uL
ABSOLUTE SEGMENTED NEUTROPHIL [4]: 1585 CELLS/uL
BASOPHIL [4]: 0%
EOSINOPHIL [4]: 0.67%
ERYTHROCYTE COUNT [4]: 5.59 x10E6/uL
HEMATOCRIT [4]: 33.87%
HEMOGLOBIN [4]: 13.63 G/DL
LEUKOCYTE COUNT [4]: 14.6 x10E3/uL
LYMPHOCYTE [4]: 88%
MEAN CORPUSCULAR HEMOGLOBIN [4]: 24.4 pg
MEAN CORPUSCULAR HEMOGLOBIN CONCENTRATION [4]: 40.23 G/DL
MEAN CORPUSCULAR VOLUME [4]: 60.63 fL
MONOCYTE [4]: 0.67%
NEUTROPHIL [4]: 10.67%
NUCLEATED RED BLOOD CELLS [4]: 0 /100WBC
PLATELET COUNT [4]: 1221.67 x10E3/uL
ALANINE AMINOTRANSFERASE [4]: 64.67 u/L
ALBUMIN [4]: 4.33 G/DL
ALKALINE PHOSPHATASE [4]: 393 u/L
ASPARTATE AMINOTRANSFERASE [4]: 80 u/L
BLOOD UREA NITROGEN [4]: 20 mg/dL
CARBON DIOXIDE [4]: 31.33 mmol/L
CHLORIDE [4]: 97 MEQ/L
CHOLESTEROL [4]: 69 mg/dL
CREATINE PHOSPHOKINASE [4]: 157.67 u/L
CREATININE [4]: 0.2 mg/dL
GLUCOSE [4]: 153.33 mg/dL
LACTATE DEHYDROGENASE [4]: 110.33 u/L
LIPASE [4]: 10 u/L
PHOSPHORUS [4]: 12.1 mg/dL
POTASSIUM [4]: 6.18 MEQ/L
SODIUM [4]: 144.7 MEQ/L
TOTAL BILIRUBIN [4]: 0.2 mg/dL
TOTAL PROTEIN [4]: 5.97 G/DL
URIC ACID [4]: 1.57 mg/dL
